Patent publication US5432260A, “High affinity mannose receptor ligands” (Washington University, priority 1991, dated 1995)

Target: T1, purified mannose receptor (Homo sapiens, UniProt P22897)
T1 construct: purified mannose receptor (Lennartz, M. R. et al., J Biol Chem (1987) 262:9942-9944 (supra)) is added; from tissue
T1 sequence (P22897 19-1456): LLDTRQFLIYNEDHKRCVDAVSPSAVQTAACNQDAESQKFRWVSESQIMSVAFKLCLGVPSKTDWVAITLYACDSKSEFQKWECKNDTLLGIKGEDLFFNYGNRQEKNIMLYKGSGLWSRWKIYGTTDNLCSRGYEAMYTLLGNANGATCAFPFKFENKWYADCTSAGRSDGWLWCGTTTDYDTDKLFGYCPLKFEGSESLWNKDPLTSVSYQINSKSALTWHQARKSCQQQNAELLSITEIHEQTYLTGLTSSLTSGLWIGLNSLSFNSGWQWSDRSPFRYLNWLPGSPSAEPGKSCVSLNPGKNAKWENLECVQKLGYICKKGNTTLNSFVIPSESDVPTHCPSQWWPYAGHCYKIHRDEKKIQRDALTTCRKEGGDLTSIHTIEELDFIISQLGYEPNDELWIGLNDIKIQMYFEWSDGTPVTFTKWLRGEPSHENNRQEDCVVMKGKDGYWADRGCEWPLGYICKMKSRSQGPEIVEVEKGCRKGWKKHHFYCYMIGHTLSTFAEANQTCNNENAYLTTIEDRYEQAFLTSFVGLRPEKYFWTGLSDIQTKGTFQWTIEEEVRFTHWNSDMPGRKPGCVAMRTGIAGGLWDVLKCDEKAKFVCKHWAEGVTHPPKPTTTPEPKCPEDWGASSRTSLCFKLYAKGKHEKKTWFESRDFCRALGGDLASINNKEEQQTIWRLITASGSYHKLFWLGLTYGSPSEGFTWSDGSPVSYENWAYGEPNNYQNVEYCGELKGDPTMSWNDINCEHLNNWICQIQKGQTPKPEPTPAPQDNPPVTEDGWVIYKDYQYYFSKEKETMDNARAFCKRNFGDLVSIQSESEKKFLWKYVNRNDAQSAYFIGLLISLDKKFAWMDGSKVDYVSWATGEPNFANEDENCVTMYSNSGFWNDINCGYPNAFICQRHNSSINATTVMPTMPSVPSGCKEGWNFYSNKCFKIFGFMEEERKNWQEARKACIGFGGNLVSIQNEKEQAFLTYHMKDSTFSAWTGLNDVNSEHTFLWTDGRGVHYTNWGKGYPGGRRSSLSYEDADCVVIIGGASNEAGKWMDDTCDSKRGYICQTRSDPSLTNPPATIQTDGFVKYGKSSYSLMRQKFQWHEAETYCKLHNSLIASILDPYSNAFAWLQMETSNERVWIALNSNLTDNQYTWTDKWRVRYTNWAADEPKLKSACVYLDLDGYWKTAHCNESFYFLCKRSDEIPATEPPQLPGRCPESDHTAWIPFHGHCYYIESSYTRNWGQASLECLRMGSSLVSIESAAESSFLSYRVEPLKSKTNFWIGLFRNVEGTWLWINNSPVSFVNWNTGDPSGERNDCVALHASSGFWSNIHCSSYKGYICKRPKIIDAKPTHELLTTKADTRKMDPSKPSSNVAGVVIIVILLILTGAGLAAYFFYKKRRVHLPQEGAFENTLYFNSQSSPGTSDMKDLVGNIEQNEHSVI
Test: Competition of 125I-mannose-BSA binding to isolated mannose receptor on beads
Conditions: for IC50: 125I-mannose-BSA 2 nM, 37° C., 15 minutes, read-out: IC50 (concentration effecting 50% inhibition of 125I-mannose-BSA binding to mannose receptor)
Method: The assay measures the ability of the test compound to inhibit the binding of ^125 I-mannose-BSA, prepared as described, to isolated mannose receptor. To prepare solid supported receptor protein A-sepharose (IgG-SORB) is incubated with rabbit anti-human mannose receptor antiserum for 20 minutes at room temperature. The beads are then washed by sedimentation 3 times in Tris-buffered saline containing 1% Triton X-100, 1% BSA and 15 mM CaCl2 (assay buffer). The beads are then suspended in an assay buffer and purified mannose receptor (Lennartz, M. R. et al., J Biol Chem (1987) 262:9942-9944 (supra)) is added, followed by incubation for 30 minutes at 37° C. The beads are washed again three times to remove unbound receptor.
In the assay, the receptor-linked beads are resuspended in a total volume of 100 μL assay buffer containing 0.1 μCi ^125 I-mannose-BSA (2 nM) prepared according to (Stahl, P. et al., Cell (1980) (supra)) with and without test compound. Following incubation at 37° C. for 15 minutes, the beads are diluted in ice cold buffer and washed three times in the same assay buffer as the dissociation or receptor/ligand at 4° C. is quite slow. The cpm of ^125 I-mannose-BSA remaining in the […] is determined, and the percent inhibition of test compound at various concentrations calculated. The IC50 is then the concentration which effects a 50% inhibition in binding. Nonspecific binding of ligand to beads is determined by adding excess yeast mannan to parallel assays and accounted for in the calculations.
The ^125 I-mannose-BSA used in the assay binds to receptor beads with a Kd of 2 nM as determined in the foregoing assay using unlabeled mannose-BSA as test compound.
The competition was conducted as set forth above, using as test compounds, mannose, oligosaccharides containing 3, 5, 7, 9 or 13 mannose residues linked α1, 4 (Man9 and Man13, respectively) and two proteins known to contain mannose residues, β-glucuronidase and invertase. ^125 I-mannose-BSA at 2 nM was used in the assay and mannose-BSA was used in a control. Varying concentrations of test compound were used to determine the IC50 for each material.
The compounds synthesized in Example 2 were tested in the assay system described in Example 1 above under the conditions therein set forth. FIGS. 2 and 3 show the results. The IC50 (concentration of test compound which effects 50% inhibition of binding of labeled mannose-BSA under the conditions of the assay) can be read from the figures.

Row | Compound | fold less effective than the mannose oligosaccharides in inhibiting 125I-mannose-BSA binding (relative to Man9/Man13, FIG. 1) | IC50 [µM] | ability to inhibit the binding of 125I-mannosyl-BSA after digestion with pronase (digested with pronase)
1 | O=C[C@@H](O)[C@@H](O)[C@H](O)[C@H](O)CO [Mannose, mannose] | at least 1,000 fold | – | –
2 | Invertase: protein known to contain mannose residues | – | 0.01 to 0.1 | destroyed
3 | Man9 | – | ~20 | –
